Results on 1 compound are retold here after US6630583B1, “Antibiotics and methods of using the same” (priority 1998, dated 2003).

One assay concerns Orf W1 mutant. Description: Phenotypes of the mutants: lysis by penicillin, vancomycin, DOC. The class given is cell-based, S. pneumoniae. The method, then:
(§1) Construction of mutations: Insertion duplication mutagenesis was carried out using PCR to generate gene fragments for homologous recombination proximal to the amino terminus of OrfW1, HK or RR as follows:
(§2) Phenotypes of the mutants: The mutants were assessed for various physiological functions characteristic of pneumococci. This included lysis by penicillin, vancomycin, and the detergent deoxycholate (DOC). Other capabilities tested included ability to undergo natural DNA transformation (Transform) and expression of the LytA protein as assessed by Western blot.

In another assay the test system is RR mutant. Described as above. The format is cell-based, S. pneumoniae. The procedure: as §1, §2
In a further assay the test system is HK mutant. The description is as above. The format is cell-based, S. pneumoniae. The procedure:
as §1, §2

For assay [1], the system named is strain RNET01 (vncS over-expressed). In words: Effect of vancomycin treatment on viability. The format is cell-based, S. pneumoniae. The note with it: RNET01, vancomycin 10×MIC (5 μg/ml), over 4 hours.
Experimental: (§3) The effect of penicillin and vancomycin treatment on the viability was determined by exposing 10 ml cultures in the early exponential phase of growth (OD620nm=0.3, corresponding 5×10^7 cfu/ml) to ten times the MIC of benzylpenicillin or vancomycin, respectively. After various times of exposure, 100 μl portions were removed, serially diluted in C+Y and in the case of penicillin supplemented with 100 units of penicillinase (Sigma), and plated on tryptic-soy agar supplemented with 3% sheep blood (v/v).
To address the question if the kinase/phosphatase VncS was indeed directly linked to the major pneumococcal autolytic pathway, VncS was overexpressed from a plasmid in a vncS deficient knockout mutant. […] To establish a possible correlation between over-expression of the vncS gene and cell death RNET01 and R6 were exposed to vancomycin.
Another assay relates to mutant SPSJ01. Description: Screen of library of loss of function mutants for antibiotic tolerance. The class given is cell-based, pneumococcus. From the text:
To detect genes that are part of the trigger pathway of the pneumococcal autolysin a library of loss of function mutants has been created, which was screened for antibiotic tolerance [Pearce et al., Mol. Microbiol., 9:1037-1050 (1993)]. […] It is reasonable to assume that this two component system represents the start of the pneumococcal autolytic trigger pathway, functioning as a relay station reacting to cell density signals or the binding of antibiotics to penicillin binding proteins. Similar to the enterococcal histidine kinase VanSB, the pneumococcal VncS works most likely as a kinase/phosphatase (see Example 1, above).

Another assay concerns vexp3 mutant. In words: Effect of antibiotic treatment on viability. The class given is cell-based, S. pneumoniae. The note with it: 10×MIC of vancomycin, in 4 hours.
Assay [2] deals with loss of function mutants of the ABC transporter and RR/HK. In words: Tolerance of loss of function mutants. The format is cell-based, S. pneumoniae. The note with it: growth inhibitory concentrations. From the text: As described in Example 6, using insertion duplication mutagenesis, loss of function mutations were obtained in each of the 3 open reading frames of the ABC transporter and each of the two parts of the RR/HK. […] These parallel phenotypes further implicate these topographically close genes in a common pathway.
Vancomycin is the only antibiotic that maintains efficacy against many strains of highly antibiotic resistant bacteria, such as staphylococci, enterococci and pneumococci. Escape from antibiotic activity of vancomycin has been detected in rare staphylococci and enterococci but not in pneumococci as yet. […] Infect. Dis. J., 12:196-200 (1993); Marton et al., J. Infect. Dis., 163:542-8 (1991); and Bradley et al., Pediatr. Infect. Dis., 14:1037-1041 (1995)]. […] If they created a phenotype which was corrected by exogenous peptide, they may participate in the biological activity of the peptide. For instance, the ABC transporter may transport the peptide and the HK may serve as an extracellular receptor for the peptide which then changes the behavior of the bacteria (i.e., killing) via a RR signal.

Another assay relates to parent strain R6. In words: Effect of vancomycin treatment on viability. The format is cell-based, S. pneumoniae. The note with it: R6, vancomycin 10×MIC (5 μg/ml), over 4 hours.
Another assay has as its system clinical isolate F79. Description: Lysis of tolerant clinical isolate. As to conditions: 10×MIC of penicillin and/or 0.5 mM peptide. The format is cell-based, pneumococcus. The procedure: FIGS. 11A-11B show the effects of 10×MIC of penicillin and/or 0.5 mM of the peptide having the amino acid sequence of SEQ ID NO:2 on the lysis of clinical isolate F79 cells (FIG. 11A) and HK mutant VanS cells (FIG. 11B).
F79 is a natural isolate of pneumococcus with mutations in the HK and the ABC transporter genes as determined by SSCP (see Example 11).

The test system of the next assay is clinical isolate A144. In words: Cell viability (CFU/ml) one hour after addition. The class given is cell-based, pneumococcus. The note with it: 10×MIC of penicillin, 1×MIC of vancomycin or 0.4 mM peptide. From the text: Tolerance to penicillin occurs in bacteria that fail to trigger autolysins in response to the drug. […] This is a mechanism of resistance to these drugs and is a serious emerging medical problem. […] However, one pneumococcal strain that fails to lyse and dies slowly in response to both penicillin and vancomycin is the clinical isolate A144. This combination of traits makes A144 recalcitrant to therapy. FIG. 8 compares the activity of penicillin, vancomycin, and the peptide having the amino acid sequence of SEQ ID NO:2 against a classical sensitive strain, R6, and the tolerant strain A144. […] In contrast, strain A144 loses only 0.5 logs of viability in the same time period for all three therapies. […] Thereafter the bacteria grew more slowly than untreated controls.

The test system of assay [3] is leucine deprived R6 cells. Description: Stringent response: lysis after leucine deprivation. The note with it: 10×MIC of penicillin or vancomycin, 0.2 mM P27, or combination. The format is cell-based, S. pneumoniae. The procedure:
P27 and the stringent response mechanism: The stringent response is believed to prevent the death pathway. To clarify the relationship of the stringent response to P27 activity, protein synthesis of R6 was inhibited by leucine deprivation and the effect of P27 was monitored (FIG. 19). […] The minimum concentration of penicillin required to cause penicillin dependent autolysis was equal to its MIC ([…]).

SMILES strings stand for the structures.

Experimental for parent strain R6: Bacterial viability was followed for six hours.
as §3
Experimental for vexp3 mutant: Bacterial viability was followed for six hours. (Parent strain, R6 (□), vex3 mutant (◯), and vncS mutant (⋄)).
as §3

Consider `CN[C@H](CC(C)C)C(=O)N[C@H]1C(=O)N[C@@H](CC(N)=O)C(=O)N[C@H]2C(=O)N[C@H]3C(=O)N[C@H](C(=O)N[C@H](C(=O)O)c4cc(O)cc(O)c4-c4cc3ccc4O)[C@H](O)c3ccc(c(Cl)c3)Oc3cc2cc(c3O[C@@H]2O[C@H](CO)[C@@H](O)[C@H](O)[C@H]2O[C@H]2C[C@](C)(N)[C@H](O)[C@H](C)O2)Oc2ccc(cc2Cl)[C@H]1O` [vancomycin], for which the “Lysis by” value with Orf W1 mutant is given as “tolerant”; with RR mutant it was “sensitive”; in the assay on HK mutant it was “tolerant”. Further, the loss in viability in assay [1] came out at 1 log. Moreover, the “death in the presence of antibiotic” value in the assay on mutant SPSJ01 is “failed to die”. Also, the kill entry in the assay on vexp3 mutant is “less than 2 log”. In addition, in assay [2], the “tolerance (lysis and death)” value is reported as “exhibited tolerance”. In addition, the “loss in viability (kill)” value with parent strain R6 was determined as 4 log. For the same compound, in the assay with clinical isolate F79, the “lysis of F79” value is “tolerant”. For the same compound, the loss of viability with clinical isolate A144 was 0.5 logs. Also, the “lysis of R6 under leucine deprivation” value in assay [3] is on record as “neither the addition of 10×the MIC of penicillin or vancomycin nor the addition of 0.2 mM P27 resulted in lysis”.
